pIC50: −log10 of the molar value.
Test system: 598228-144-R-J1-PDC complex spheroid viability
Experiment: Anticancer human tumor 598228-144-R-J1-PDC patient-derived serous endometrial adenocarcinoma cell line growth inhibition [GQUAD]
Conditions: for pIC50: curve of first compound; for viability, T/C: stronger effect = lower value
Description: DNA G-quadruplex Stabilizer Agents in Combinations in Complex Spheroids
A high-throughput screen of multi-cell type tumor spheroids was designed to identify active combinations of DNA G-quadruplex stabilizer agents and targeted small molecules. Complex spheroids include a stromal component modeled by human endothelial cells (HUVEC) and fibroblasts modeled by human mesenchymal stem cells (MSCs). The concentration ranges selected for each drug and investigational agent were based upon clinically achievable concentrations if the clinical Cmax of the agent was known.
Compounds. The drugs and investigational agents: pidnarulex (CX-5461; NSC782164), APTO-253 (NSC789042), BRACO-19 (NSC847499), peposertib (NSC802822), ceralasertib (NSC780249), elimusertib (NSC800525), camonsertib (NSC841442), AZD-1390 (NSC803789), olaparib (NSC753686), talazoparib (NSC767125), ART-558 (NSC835418), sotorasib (NSC818433), MRTX-1133 (NSC836407), SN-38 (NSC673596), topotecan (NSC609699), etoposide (NSC141540), doxorubicin (NSC123127), gemcitabine (NSC613327), 5-fluorouracil (NSC19893), paclitaxel (NSC125973), vemurafenib (NSC761431), panobinostat (NSC761190), R-306465 (JNJ-16241199; NSC773264), adavosertib (NSC754352), TP-3654 (NSC805149), carboplatin (NSC241240), KSQ-4279 (NSC840948), and staurosporine (NSC755774) were obtained from the National Cancer Institute (NCI) Developmental Therapeutics Program Chemical Repository (34). The FDA-approved anticancer drug set is available from the NCI Developmental Therapeutics Program. […] The stock solutions were prepared in dimethyl sulfoxide (DMSO, Sigma-Aldrich, St. Louis, MO, cat. D2650) at 800-fold the tested concentration and stored at -70 degrees C prior to their use. All drugs and investigational agents were tested over a range starting from a high concentration at or near the clinical Cmax and decreasing in half-log increments. If the clinical Cmax for an agent had not been determined, the highest concentration tested was 10 microM.
2.3 Cell Culture. All cells were maintained in an incubator at 37 degrees C and 5% CO2 with 95% humidity. The PDC lines were cultured according to standard operating procedures established by the NCI PDMR. All PDCs were thawed and cultured in Matrigel-coated flasks prepared with a working solution of 1X Ham's F-12 nutrient mix, without supplementation (Invitrogen, cat. 11765054), 100 U/mL penicillin-streptomycin (Invitrogen, cat. 15140122), and 2.5% Matrigel (Corning Inc., cat. 354248) for the first three passages. The 857933-349-R-J2-PDC line was cultured in 6C/Colon 1B media, which includes advanced DMEM/F-12 (Thermo Fisher Scientific, cat. 12634028), 10 mM HEPES (Thermo Fisher Scientific, cat. 15630080), 1X GlutaMAX supplement (Thermo Fisher Scientific, cat. 35050061), 0.1 mg/mL primocin (InvivoGen, cat. ant-pm-2), 10% defined fetal bovine serum, heat inactivated (HyClone Laboratories Inc., cat. SH30070.03HI), 50% L-WRN conditioned media (ATCC, cat. CRL-3276), 1.25 mM N-Acetyl-L-cysteine (Sigma-Aldrich, cat. A9165), 10 mM nicotinamide (Sigma-Aldrich, cat. N0636), 1X B-27 supplement (Thermo Fisher Scientific, cat. 17504044), 1X N-2 supplement (Thermo Fisher Scientific, cat. 17502048), 10 microM Y-27632 dihydrochloride (Tocris Bioscience, cat. 1254), and 50 ng/mL human EGF recombinant protein (Thermo Fisher Scientific, cat. PHG0311). The 485176-168-R4-J1-PDC line was cultured in Panc media, which includes all 6C/Colon 1B media components plus 100 ng/mL human FGF-10 (Thermo Fisher Scientific, cat. 100-26), 500 nM SB-431542 (Selleckchem, cat. S1067), and gastrin (Tocris, cat. 3006).
[…]

[1] = second compound 0.0316 µM, first compound 0.000999 µM
[2] = second compound 0.0316 µM, first compound 0.00316 µM
[3] = second compound 0.0316 µM, first compound 0.00999 µM
[4] = second compound 0.0316 µM, first compound 0.0316 µM
[5] = second compound 0.0316 µM, first compound 0.0999 µM
[6] = second compound 0.0316 µM, first compound 0.316 µM
[7] = second compound 0.1 µM, first compound 0.000999 µM
[8] = second compound 0.1 µM, first compound 0.00316 µM
[9] = second compound 0.1 µM, first compound 0.00999 µM
[10] = second compound 0.1 µM, first compound 0.0316 µM
[11] = second compound 0.1 µM, first compound 0.0999 µM
[12] = second compound 0.1 µM, first compound 0.316 µM
[13] = second compound 0.316 µM, first compound 0.000999 µM
[14] = second compound 0.316 µM, first compound 0.00316 µM
[15] = second compound 0.316 µM, first compound 0.00999 µM
[16] = second compound 0.316 µM, first compound 0.0316 µM
[17] = second compound 0.316 µM, first compound 0.0999 µM
[18] = second compound 0.316 µM, first compound 0.316 µM
[19] = second compound 1 µM, first compound 0.000999 µM
[20] = second compound 1 µM, first compound 0.00316 µM
[21] = second compound 1 µM, first compound 0.00999 µM
[22] = second compound 1 µM, first compound 0.0316 µM
[23] = second compound 1 µM, first compound 0.0999 µM
[24] = second compound 1 µM, first compound 0.316 µM
[25] = second compound 3.16 µM, first compound 0.000999 µM
[26] = second compound 3.16 µM, first compound 0.00316 µM
[27] = second compound 3.16 µM, first compound 0.00999 µM
[28] = second compound 3.16 µM, first compound 0.0316 µM
[29] = second compound 3.16 µM, first compound 0.0999 µM
[30] = second compound 3.16 µM, first compound 0.316 µM
[31] = second compound 10 µM, first compound 0.000999 µM
[32] = second compound 10 µM, first compound 0.00316 µM
[33] = second compound 10 µM, first compound 0.00999 µM
[34] = second compound 10 µM, first compound 0.0316 µM
[35] = second compound 10 µM, first compound 0.0999 µM
[36] = second compound 10 µM, first compound 0.316 µM
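Also: spheroids exposed to the agents for one week before reading.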
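For viability, T/C in this document: percent of vehicle DMSO control viability so 100% = untreated growth.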

CC[C@@]1(O)C(=O)OCc2c1cc1n(c2=O)Cc2cc3c(CN(C)C)c(O)ccc3nc2-1 + CN(C)c1ccc(Nc2c3ccc(NC(=O)CCN4CCCC4)cc3nc3cc(NC(=O)CCN4CCCC4)ccc23)cc1
pIC50 (second compound 0.0316 µM): < 6.50 | pIC50 (second compound 0.1 µM): < 6.50 | pIC50 (second compound 0.316 µM): 7.01 | pIC50 (second compound 1 µM): 7.06 | pIC50 (second compound 3.16 µM): 6.65 | pIC50 (second compound 10 µM): 7.12 | viability, T/C [1]: 84.4% | viability, T/C [2]: 84.2% | viability, T/C [3]: 105% | viability, T/C [4]: 91.4% | viability, T/C [5]: 54.6% | viability, T/C [6]: 59.4% | viability, T/C [7]: 99.4% | viability, T/C [8]: 95.9% | viability, T/C [9]: 95.3% | viability, T/C [10]: 75.5% | viability, T/C [11]: 56.6% | viability, T/C [12]: 56.5% | viability, T/C [13]: 95.8% | viability, T/C [14]: 104% | viability, T/C [15]: 101% | viability, T/C [16]: 72.8% | viability, T/C [17]: 48.5% | viability, T/C [18]: 50.5% | viability, T/C [19]: 84.3% | viability, T/C [20]: 91.8% | viability, T/C [21]: 92% | viability, T/C [22]: 102% | viability, T/C [23]: 42.6% | viability, T/C [24]: 45.8% | viability, T/C [25]: 97.8% | viability, T/C [26]: 89.9% | viability, T/C [27]: 86.4% | viability, T/C [28]: 94.6% | viability, T/C [29]: 57.5% | viability, T/C [30]: 46.8% | viability, T/C [31]: 66.9% | viability, T/C [32]: 90.9% | viability, T/C [33]: 81.5% | viability, T/C [34]: 62.6% | viability, T/C [35]: 48.5% | viability, T/C [36]: 42.3%

Cc1[nH]c2ccccc2c1CCNCc1ccc(/C=C/C(=O)NO)cc1 + CN(C)c1ccc(Nc2c3ccc(NC(=O)CCN4CCCC4)cc3nc3cc(NC(=O)CCN4CCCC4)ccc23)cc1
pIC50 (second compound 0.0316 µM): 7.41 | pIC50 (second compound 0.1 µM): 7.31 | pIC50 (second compound 0.316 µM): 7.27 | pIC50 (second compound 1 µM): 7.37 | pIC50 (second compound 3.16 µM): 7.35 | pIC50 (second compound 10 µM): 7.71 | viability, T/C [1]: 113% | viability, T/C [2]: 94.7% | viability, T/C [3]: 103% | viability, T/C [4]: 46.6% | viability, T/C [5]: 29.1% | viability, T/C [6]: 1.08% | viability, T/C [7]: 91.7% | viability, T/C [8]: 107% | viability, T/C [9]: 86% | viability, T/C [10]: 64.7% | viability, T/C [11]: 25.8% | viability, T/C [12]: 0.89% | viability, T/C [13]: 114% | viability, T/C [14]: 96.8% | viability, T/C [15]: 95.7% | viability, T/C [16]: 70.7% | viability, T/C [17]: 26.9% | viability, T/C [18]: 0.69% | viability, T/C [19]: 96.9% | viability, T/C [20]: 120% | viability, T/C [21]: 91.2% | viability, T/C [22]: 59.1% | viability, T/C [23]: 23.5% | viability, T/C [24]: 2.25% | viability, T/C [25]: 99.9% | viability, T/C [26]: 103% | viability, T/C [27]: 87.9% | viability, T/C [28]: 66.7% | viability, T/C [29]: 13.9% | viability, T/C [30]: 0.99% | viability, T/C [31]: 82.3% | viability, T/C [32]: 102% | viability, T/C [33]: 70.5% | viability, T/C [34]: 33.6% | viability, T/C [35]: 8.01% | viability, T/C [36]: 0.44%

Source: PubChem BioAssay AID2060506 (Molecular Pharmacology Branch, DTP, NCI, 2025)
